Where only a bound is given, the exact number is not on record here.

One may read the IC50 as the midpoint of a concentration-inhibition curve. Low readings indicate greater potency, high ones weaker potency.

The test system of data set [1] is human lung adenocarcinoma NCI-H441 cells. Kind of data set: In vitro inhibitory effect on the proliferation of NCI-H441 cells (3D CellTiter Glo, 5 days). The data set is classed as cell-based. The conditions noted are these: 120 h, 3D cell viability. As to the method:
The human lung adenocarcinoma cell NCI-H441 used in the assay was purchased from ATCC. The complete culture medium required for cell culture was RPMI 1640 Medium (GIBCO Company), which was supplemented with 10% fetal bovine serum (GIBCO Company). Cells were cultured in a 37° C., 5% CO2 incubator. The reagents used in the assay included dimethyl sulfoxide (purchased from Sigma), a 3D Cell Viability assay kit (purchased from Promega), and the control substance TW-45 used in the assay was obtained homemade. The test substance was sealed and stored at 4° C.
Dimethyl sulfoxide was used as the solvent to fully dissolve the test substance and prepare a stock solution with a concentration of 1×10^−2 mol/L. The stock solution was stored at −20° C. A complete culture medium was used as the diluent, and the test substance was diluted to different concentrations in gradient for later use (the final test concentration was 10000, 3333, 1111, 370, 123, 41, 13.7, 4.5, 1.5, and 0.5 nM). Cells were cultured in a 37° C., 5% CO2 incubator for 5 days. Detection was made on the fifth day. 30 μL of reagent (Celltiter Glo Assay Kit-3D) was added to each well and the plate was shaken on a plate oscillator (protected from light) for 30 minutes. The plate was incubated at room temperature (protected from light) for 120 minutes. Chemiluminescence values were recorded with a Multiplate reader. […]

Another data set concerns the target hERG channel (Homo sapiens (Human), UniProt Q12809). Kind of data set: hERG assay, manual whole-cell patch clamp in CHO-K1 cell line stably expressing the hERG channel. The data set is classed as cell-based. As for the experimental part: This assay included the following aspects: • A manual patch clamp technique was used to record the hERG current in the CHO-K1 cell line stably expressing the hERG channel; • The inhibition rate at each concentration was calculated based on the hERG tail current; • Each compound was tested at 5 concentrations to calculate the IC50 value; • Three cells were tested for each concentration; • One positive control drug was set.
HERG currents were recorded using the whole-cell patch-clamp technique. The cell suspension was added to the cell tank and placed on the upright microscope stage. After the cell adherence, the cells were perfused with extracellular fluid at a flow rate of 1-2 mL/min. The glass microelectrode was drawn in two steps by a micropipette puller, and its resistance value in water was 2-5 MΩ. After establishing the whole-cell recording, the clamp potential was maintained at −80 mV. The hERG tail current was elicited by applying a depolarizing voltage to +60 mV upon the voltage stimulation and then repolarizing to −50 mV. All recordings were made after the current stabilization. Extracellular perfusion administration started from a low concentration, and each concentration lasted for 5-10 minutes until the current was stable, and then proceeded to the next concentration.
The half inhibitory concentration (ICSO) of the test compound was derived from the best fit of the Logistic equation.
(Block of hERG is tested as a sign of cardiac risk.)

Chain of hERG channel (Q12809 whole entry, the tested form may be a part): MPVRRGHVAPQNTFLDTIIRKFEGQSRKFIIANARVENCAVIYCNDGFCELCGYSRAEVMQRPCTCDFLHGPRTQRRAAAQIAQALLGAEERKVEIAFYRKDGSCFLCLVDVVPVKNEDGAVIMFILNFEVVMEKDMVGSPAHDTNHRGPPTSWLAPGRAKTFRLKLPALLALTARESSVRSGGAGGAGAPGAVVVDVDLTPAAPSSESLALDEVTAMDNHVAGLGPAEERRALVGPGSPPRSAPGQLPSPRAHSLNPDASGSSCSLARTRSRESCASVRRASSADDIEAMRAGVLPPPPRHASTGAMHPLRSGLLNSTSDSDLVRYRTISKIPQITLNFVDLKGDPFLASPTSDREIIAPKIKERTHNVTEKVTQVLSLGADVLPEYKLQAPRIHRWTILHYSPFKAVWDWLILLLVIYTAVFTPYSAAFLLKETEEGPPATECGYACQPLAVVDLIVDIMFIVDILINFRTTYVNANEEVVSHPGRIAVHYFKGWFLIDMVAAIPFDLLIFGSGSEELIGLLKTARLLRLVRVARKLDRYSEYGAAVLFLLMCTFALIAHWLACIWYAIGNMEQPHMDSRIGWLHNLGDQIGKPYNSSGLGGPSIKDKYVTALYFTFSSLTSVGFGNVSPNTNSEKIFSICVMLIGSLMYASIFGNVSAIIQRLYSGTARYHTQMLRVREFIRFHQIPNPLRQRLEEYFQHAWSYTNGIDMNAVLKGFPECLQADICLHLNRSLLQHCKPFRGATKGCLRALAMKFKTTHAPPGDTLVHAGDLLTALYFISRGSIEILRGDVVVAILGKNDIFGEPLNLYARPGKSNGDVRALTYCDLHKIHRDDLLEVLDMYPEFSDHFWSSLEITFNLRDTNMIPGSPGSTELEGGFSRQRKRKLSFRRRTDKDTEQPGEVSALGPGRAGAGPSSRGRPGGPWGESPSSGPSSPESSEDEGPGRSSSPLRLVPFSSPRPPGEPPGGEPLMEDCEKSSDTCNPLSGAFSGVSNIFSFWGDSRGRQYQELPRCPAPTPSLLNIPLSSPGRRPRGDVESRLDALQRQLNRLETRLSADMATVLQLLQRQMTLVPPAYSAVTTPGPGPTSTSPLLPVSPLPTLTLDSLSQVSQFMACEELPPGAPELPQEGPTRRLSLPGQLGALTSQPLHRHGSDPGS

For `[2H][C@@]1(N)c2ccccc2OC12CCN(c1nc(N)c(Sc3ccnc(N)c3Cl)nc1C(C)=O)CC2` [Compound 56, (R)-1-(5-amino-6-((2-amino-3-chloropyridine-4-yl)sulfanyl)-3-(3-amino-3-deuterium-spiro[benzofuran-2,4′-piperidine]-1′-yl)pyrazine-2-yl)ethanone], the IC50 in data set [1] was no more than 20 nM; at hERG channel (CHO-K1 stable cell line, hERG tail current, 5 concentrations), greater than 10 µM. For the same molecule, at hERG channel (within the detection concentration range of the assay), the “inhibitory effect on the hERG channel (in words)” value is reported as “no obvious inhibitory effect on the hERG channel”.

Values taken from patent US20240376119A1, “SPIRO COMPOUND AND USE THEREOF” (CSPC Zhongqi Pharmaceutical Technology (Shijiazhuang) Co., …, priority 2021, published 2024).
